The test system of assay [1] is MCF7 cells. As to the kind of experiment: Anti-proliferation (viability) of MCF7 cells (Table 7, FIG. 2B). The assay is classed as cell-based. The settings on record: Homo sapiens, MCF7, MCF7 cells, 3-6 days, 10-point serial dilution; read-out: GI IC50 in MCF-7.
In assay [2] the test system is Calu-1 cells. In words: Anti-proliferation (viability) of NSCLC Calu-1 cells, 3 days (Table 7, FIG. 2B). Format: cell-based. The conditions noted are these: Homo sapiens, 72 h; Calu-1 cells, 3 days, 10-point serial dilution; read-out: GI IC50 in Calu-1. The gist of the method: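 Heterobifunctional compounds are tested in 10-point serial dilutions on Calu-1 (3-day exposure) and T47D (6-day exposure) cells.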

The structures appear in SMILES notation.

For orientation: IC50 means the concentration that inhibits the measured activity by half.

Turning to `CC(=O)c1c(C)c2cnc(Nc3ccc(N4CCN(CC(=O)N5CCC(Nc6nc(NC(C)C)ccc6C(=O)Nc6cn(C)c(C7CC7)n6)CC5)CC4)cn3)nc2n(C2CCCC2)c1=O` [CPD-279, 2-((1-(2-(4-(6-((6-acetyl-8-cyclopentyl-5-methyl-7-oxo-7,8-dihydropyrido[2,3-d]pyrimidin-2-yl)amino)pyridin-3-yl)piperazin-1-yl)acetyl)piperidin-4-yl)amino)-N-(2-cyclopropyl-1-methyl-1H-imidazol-4-yl)-6-(isopropylamino)nicotinamide], the results for the IC50 in assay [1] and in assay [2] were above 100 nM and 10 to 50 nM, respectively.
On to `[2H]C([2H])([2H])Nc1ccc(C(=O)Nc2ccc(N(C)C)nn2)c(NC2CCN(C(=O)N3CCC(N4CCN(c5ccc(Nc6ncc7c(C)c(C(C)=O)c(=O)n(C8CCCC8)c7n6)nc5)CC4)C3)CC2)n1` (stereo not drawn) [CPD-482, 2-((1-(3-(4-(6-((6-acetyl-8-cyclopentyl-5-methyl-7-oxo-7,8-dihydropyrido[2,3-d]pyrimidin-2-yl)amino)pyridin-3-yl)piperazin-1-yl)pyrrolidine-1-carbonyl)piperidin-4-yl)amino)-N-(6-(dimethylamino)pyridazin-3-yl)-6-((methyl-d3)amino)nicotinamide], for which the concentration for half-maximal inhibition (IC50) was below 50 nM in assay [1] and at most 10 nM in assay [2].
`CC(=O)c1c(C)c2cnc(Nc3ccc(N4CCN(C5CCN(C(=O)C6CCC7(CC(Nc8nc(NC(C)C)ccc8C(=O)Nc8ccc(N(C)C)nn8)C7)C6)C5)CC4)cn3)nc2n(C2CCCC2)c1=O` (stereo not drawn) [CPD-556, 2-((6-(3-(4-(6-((6-acetyl-8-cyclopentyl-5-methyl-7-oxo-7,8-dihydropyrido[2,3-d]pyrimidin-2-yl)amino)pyridin-3-yl)piperazin-1-yl)pyrrolidine-1-carbonyl)spiro[3.4]octan-2-yl)amino)-N-(6-(dimethylamino)pyridazin-3-yl)-6-(isopropylamino)nicotinamide]: the IC50 in assay [1] was below 50 nM; in assay [2], at most 10 nM.
Turning to `[2H]C([2H])([2H])Nc1ccc(C(=O)Nc2cn(C)c(C3CC3)n2)c(NC2CCN(C(=O)CCN3CCN(c4ccc(Nc5ncc6c(C)c(C(C)=O)c(=O)n(C7CCCC7)c6n5)nc4)CC3)C2)n1` (stereo not drawn) [CPD-273, 2-((1-(3-(4-(6-((6-acetyl-8-cyclopentyl-5-methyl-7-oxo-7,8-dihydropyrido[2,3-d]pyrimidin-2-yl)amino)pyridin-3-yl)piperazin-1-yl)propanoyl)pyrrolidin-3-yl)amino)-N-(2-cyclopropyl-1-methyl-1H-imidazol-4-yl)-6-((methyl-d3)amino)nicotinamide], the IC50 was above 100 nM in assay [1] and at least 50 nM in assay [2].
As to `CC(=O)c1c(C)c2cnc(Nc3ccc(N4CCN(C5CCN(C(=O)N6CCC7(CCC(Nc8nc(NC(C)C)ccc8C(=O)Nc8ccc(N(C)C)nn8)C7)C6)C5)CC4)cn3)nc2n(C2CCCC2)c1=O` (stereo not drawn) [CPD-561, 2-((2-(3-(4-(6-((6-acetyl-8-cyclopentyl-5-methyl-7-oxo-7,8-dihydropyrido[2,3-d]pyrimidin-2-yl)amino)pyridin-3-yl)piperazin-1-yl)pyrrolidine-1-carbonyl)-2-azaspiro[4.4]nonan-7-yl)amino)-N-(6-(dimethylamino)pyridazin-3-yl)-6-(isopropylamino)nicotinamide], the IC50 in assay [1] was above 100 nM; in assay [2] it was at most 10 nM.
As to `CC(=O)c1c(C)c2cnc(Nc3ccc(N4CC5(CN(CC(=O)NCC6CC(Nc7nc(NC(C)C)ccc7C(=O)Nc7ccc(N(C)C)nn7)C6)C5)C4)cn3)nc2n(C2CCCC2)c1=O` (stereo not drawn) [CPD-468, 2-((3-((2-(6-(6-((6-acetyl-8-cyclopentyl-5-methyl-7-oxo-7,8-dihydropyrido[2,3-d]pyrimidin-2-yl)amino)pyridin-3-yl)-2,6-diazaspiro[3.3]heptan-2-yl)acetamido)methyl)cyclobutyl)amino)-N-(6-(dimethylamino)pyridazin-3-yl)-6-(isopropylamino)nicotinamide], the IC50 in assay [1] is above 100 nM; in assay [2], 10 to 50 nM.
For `CC(C)Nc1ccc(C(=O)Nc2ccc(N(C)C)nn2)c(NC2CCC(C(=O)N3CCC(N4CCN(c5ccc(Nc6ncc7ccc(=O)n(C8CCCC8)c7n6)nc5)CC4)C3)CC2)n1` (stereo not drawn) [CPD-535, 2-((4-(3-(4-(6-((8-cyclopentyl-7-oxo-7,8-dihydropyrido[2,3-d]pyrimidin-2-yl)amino)pyridin-3-yl)piperazin-1-yl)pyrrolidine-1-carbonyl)cyclohexyl)amino)-N-(6-(dimethylamino)pyridazin-3-yl)-6-(isopropylamino)nicotinamide] the same measures were 50 to 100 nM and 10 to 50 nM.
With `CC(=O)c1c(C)c2cnc(Nc3ccc(N4CCN(C(=O)NC5CC(Nc6nc(NC(C)C)ccc6C(=O)Nc6cn(C)c(C7CC7)n6)C5)CC4)cn3)nc2n(C2CCCC2)c1=O` (stereo not drawn) [CPD-289, 4-(6-((6-acetyl-8-cyclopentyl-5-methyl-7-oxo-7,8-dihydropyrido[2,3-d]pyrimidin-2-yl)amino)pyridin-3-yl)-N-(3-((3-((2-cyclopropyl-1-methyl-1H-imidazol-4-yl)carbamoyl)-6-(isopropylamino)pyridin-2-yl)amino)cyclobutyl)piperazine-1-carboxamide], the half-inhibitory concentration (IC50) in assay [1] was above 100 nM; in assay [2] it was at least 50 nM.
The like results for `CC(=O)c1c(C)c2cnc(Nc3ccc(N4CC5(CN(CCC(=O)N6CCC(Nc7nc(NC(C)C)ccc7C(=O)Nc7ccc(N(C)C)nn7)CC6)C5)C4)cn3)nc2n(C2CCCC2)c1=O` [CPD-454, 2-((1-(3-(6-(6-((6-acetyl-8-cyclopentyl-5-methyl-7-oxo-7,8-dihydropyrido[2,3-d]pyrimidin-2-yl)amino)pyridin-3-yl)-2,6-diazaspiro[3.3]heptan-2-yl)propanoyl)piperidin-4-yl)amino)-N-(6-(dimethylamino)pyridazin-3-yl)-6-(isopropylamino)nicotinamide] were, in that order, above 100 nM and 10 to 50 nM.
For `CC(=O)c1c(C)c2cnc(Nc3ccc(N4CCN(CC(=O)NC5CC6(C5)CC(Nc5nc(NC(C)C)ccc5C(=O)Nc5ccc(N(C)C)nn5)C6)CC4)cn3)nc2n(C2CCCC2)c1=O` (stereo not drawn) [CPD-272, 2-((6-(2-(4-(6-((6-acetyl-8-cyclopentyl-5-methyl-7-oxo-7,8-dihydropyrido[2,3-d]pyrimidin-2-yl)amino)pyridin-3-yl)piperazin-1-yl)acetamido)spiro[3.3]heptan-2-yl)amino)-N-(6-(dimethylamino)pyridazin-3-yl)-6-(isopropylamino)nicotinamide] the same measures were below 50 nM and at most 10 nM.
Regarding `[2H]C([2H])([2H])Nc1ccc(C(=O)Nc2cccc(C)n2)c(NC2CCN(C(=O)CN3CCN(c4ccc(Nc5ncc6c(C)c(C(C)=O)c(=O)n(C7CCCC7)c6n5)nc4)CC3)CC2)n1` [CPD-270, 2-((1-(2-(4-(6-((6-acetyl-8-cyclopentyl-5-methyl-7-oxo-7,8-dihydropyrido[2,3-d]pyrimidin-2-yl)amino)pyridin-3-yl)piperazin-1-yl)acetyl)piperidin-4-yl)amino)-6-((methyl-d3)amino)-N-(6-methylpyridin-2-yl)nicotinamide], the values for the IC50 in assay [1] and in assay [2] were above 100 nM and at least 50 nM, respectively.
For `[2H]C([2H])([2H])Nc1ccc(C(=O)Nc2cn(C)c(C3CC3)n2)c(NC2CC(CNC(=O)CN3CCN(c4ccc(Nc5ncc6c(C)c(C(C)=O)c(=O)n(C7CCCC7)c6n5)nc4)CC3)C2)n1` (stereo not drawn) [CPD-278, 2-((3-((2-(4-(6-((6-acetyl-8-cyclopentyl-5-methyl-7-oxo-7,8-dihydropyrido[2,3-d]pyrimidin-2-yl)amino)pyridin-3-yl)piperazin-1-yl)acetamido)methyl)cyclobutyl)amino)-N-(2-cyclopropyl-1-methyl-1H-imidazol-4-yl)-6-((methyl-d3)amino)nicotinamide], the IC50 in assay [1] is above 100 nM; in assay [2], 10 to 50 nM.
On to `CC(=O)c1c(C)c2cnc(Nc3ccc(N4CCC(N(C)CC(=O)N5CCC(Nc6nc(NC(C)C)ccc6C(=O)Nc6cn(C)c(C7CC7)n6)CC5)CC4)cn3)nc2n(C2CCCC2)c1=O` [CPD-466, 2-((1-(N-(1-(6-((6-acetyl-8-cyclopentyl-5-methyl-7-oxo-7,8-dihydropyrido[2,3-d]pyrimidin-2-yl)amino)pyridin-3-yl)piperidin-4-yl)-N-methylglycyl)piperidin-4-yl)amino)-N-(2-cyclopropyl-1-methyl-1H-imidazol-4-yl)-6-(isopropylamino)nicotinamide], for which the figures for the IC50 in assay [1] and in assay [2] were 50 to 100 nM and at most 10 nM, respectively.
As for `CNc1ccc(C(=O)Nc2ccc(N(C)C)nn2)c(NC2CCC(CNC(=O)CN3CCN(c4ccc(Nc5ncc6c(C)c(C(C)=O)c(=O)n(C7CCCC7)c6n5)nc4)CC3)C2)n1` (stereo not drawn) [CPD-271, 2-((3-((2-(4-(6-((6-acetyl-8-cyclopentyl-5-methyl-7-oxo-7,8-dihydropyrido[2,3-d]pyrimidin-2-yl)amino)pyridin-3-yl)piperazin-1-yl)acetamido)methyl)cyclopentyl)amino)-N-(6-(dimethylamino)pyridazin-3-yl)-6-(methylamino)nicotinamide], the IC50 was above 100 nM in assay [1] and at least 50 nM in assay [2].
The like results for `CC(=O)c1c(C)c2cnc(Nc3ccc(N4CCC(N(C)CC(=O)N5CCC(Nc6nc(NC(C)C)ccc6C(=O)Nc6cc(C)n(C)n6)CC5)CC4)cn3)nc2n(C2CCCC2)c1=O` [CPD-465, 2-((1-(N-(1-(6-((6-acetyl-8-cyclopentyl-5-methyl-7-oxo-7,8-dihydropyrido[2,3-d]pyrimidin-2-yl)amino)pyridin-3-yl)piperidin-4-yl)-N-methylglycyl)piperidin-4-yl)amino)-N-(1,5-dimethyl-1H-pyrazol-3-yl)-6-(isopropylamino)nicotinamide] were, in that order, below 50 nM and at most 10 nM.

The record behind these values is patent US20260297081A1, “COMPOUNDS AND METHODS OF TREATING CANCERS” (Cullgen Inc., priority 2023, published 2026).
